Source: PMC10981597 (Amino Acids, 2024)

Experiments:
[1] = assay type: physicochemical; settings: pH 7.4
[2] = assay type: physicochemical; settings: pH 6.5
[3] = human, serum

Row | SMILES | ANS fluorescence intensity with increasing peptide concentration (self-assembly) [1] | self-assembled morphology by TEM [2] | remaining at 24 h [3] [%]
1 | CCCCCCCCCCCCCCNCCCC[C@@H]1NC(=O)[C@@H](N)CSSC[C@@H]2NC(=O)[C@@H]3CSSC[C@@H](C(N)=O)NC(=O)[C@H](CCCCN)NC(=O)CNC(=O)[C@H](CO)NC(=O)[C@H](CCCNC(=N)N)NC(=O)[C@H](CSSC[C@H](NC(=O)[C@H](CCCCN)NC(=O)[C@H](C)NC(=O)CNC(=O)[C@H](CCCCN)NC(=O)CNC1=O)C(=O)N[C@@H](CO)C(=O)N[C@@H](CCCNC(=N)N)C(=O)N[C@@H](CC(C)C)C(=O)N[C@@H](CCSC)C(=O)N[C@@H](Cc1ccc(O)cc1)C(=O)N[C@@H](CC(=O)O)C(=O)N3)NC(=O)[C@H](CO)NC(=O)CNC(=O)[C@H]([C@@H](C)O)NC2=O [K2-MVIIA] | significant increase in fluorescence intensity | nanomicellar structures | 78.7
2 | CSCC[C@@H]1NC(=O)[C@H](CC(C)C)NC(=O)[C@H](CCCNC(=N)N)NC(=O)[C@H](CO)NC(=O)[C@@H]2CSSC[C@@H]3NC(=O)[C@H](CO)NC(=O)CNC(=O)[C@H]([C@@H](C)O)NC(=O)[C@H](CSSC[C@H](N)C(=O)N[C@@H](CCCCN)C(=O)NCC(=O)N[C@@H](CCCCN)C(=O)NCC(=O)N[C@@H](C)C(=O)N[C@@H](CCCCN)C(=O)N2)NC(=O)[C@H](CSSC[C@@H](C(N)=O)NC(=O)[C@H](CCCCN)NC(=O)CNC(=O)[C@H](CO)NC(=O)[C@H](CCCNC(=N)N)NC3=O)NC(=O)[C@H](CC(=O)O)NC(=O)[C@H](Cc2ccc(O)cc2)NC1=O [MVIIA, ω-conotoxin MVIIA, reference compound] | almost no increase in fluorescence intensity | oligomers | –
3 | CCCCCCCCCCCCCCNCCCC[C@@H]1NC(=O)CNC(=O)[C@H](CCCCNCCCCCCCCCCCCCC)NC(=O)[C@@H](N)CSSC[C@@H]2NC(=O)[C@@H]3CSSC[C@@H](C(N)=O)NC(=O)[C@H](CCCCN)NC(=O)CNC(=O)[C@H](CO)NC(=O)[C@H](CCCNC(=N)N)NC(=O)[C@H](CSSC[C@H](NC(=O)[C@H](CCCCN)NC(=O)[C@H](C)NC(=O)CNC1=O)C(=O)N[C@@H](CO)C(=O)N[C@@H](CCCNC(=N)N)C(=O)N[C@@H](CC(C)C)C(=O)N[C@@H](CCSC)C(=O)N[C@@H](Cc1ccc(O)cc1)C(=O)N[C@@H](CC(=O)O)C(=O)N3)NC(=O)[C@H](CO)NC(=O)CNC(=O)[C@H]([C@@H](C)O)NC2=O [K2-K4-MVIIA] | significant increase in fluorescence intensity | nanomicellar structures | 75.6
